pIC50: −log10 of the molar value.
System: Wnt/β-catenin pathway
Assay: Wnt reporter assay (TCF-Luciferase, Firefly) in DBTRG-05MG cells
Type: cell-based
Settings: Homo sapiens, 24 hours after compound addition
Experimental: TCF-Luciferase: Three copies of a 4×TCF responsive elements were cloned into the pcDNA3.1/Zeo(+) vector (Invitrogen) after deletion of the constitutive CMV promoter and the insertion of the Firefly Luciferase from Promega (phFL-TK) to measure the activity of the Wnt/β-catenin pathway. The resulting plasmid was sequenced for quality control.
Cells were grown in 20 μg/ml Zeocin and 20 μg/ml Zeocin plus 30 μg/ml Hygromicin respectively. The cells were plated at a density of 6500 cells/well in poly-D-lysine pre-treated 96 well-plates.
IC50 determination: 36 hours after plating cells were incubated with 8-points (60 μM-40 μM-20 μM-10 μM-5 μM-1.66 μM-0.55 μM-0.185 μM) dilutions compound (0.6% DMSO (v/v)). Each compound was tested in triplicate in single plate. Luciferase detection was done with Dual-Luciferase Reporter Assay System (Promega). 24 hours after compound addition, media was removed and 30 μl of 1× lysis buffer was added to each well for 30 minutes. To each well 45 μl of Dual-Glo Luciferase reagent (Promega) were added and after 1 second delay Luciferase was detected for 1 second using Mithras LB940 instrument. After Firefly luciferase quantification 45 μl of Dual Stop & Glo reagent (Promega) were added to each well and Firefly Renilla was detected using the same parameters described before.
Data were expressed as % of control for Firefly and Renilla luciferase independently; values were calculated using XLFit version 4.2, with a four parameters sigmoid function (XLFit model 205).

pIC50	Structure (SMILES)
4.52 to 6.52	CN1C(=O)N(C[C@H]2CC[C@H](C(=O)N3CCN(C(=O)C4CCCC4)CC3)CC2)Cc2ccccc21 [Example 68]
4.52 to 6.52	COCC(=O)N1CCN(C(=O)[C@H]2CC[C@H](CN3Cc4ccccc4N(C)C3=O)CC2)CC1 [Example 69]
4.52 to 6.52	O=c1[nH]c2ccccc2c(=O)n1C[C@H]1CC[C@H](C(=O)Nc2cccc3cccnc23)CC1 [Example 70]
4.52 to 6.52	O=C(C1CCCC1)N1CCN(C(=O)[C@H]2CC[C@H](CN3Cc4ccccc4NC3=O)CC2)CC1 [Example 72]
4.52 to 6.52	O=C(C1CC1)N1CCN(C(=O)[C@H]2CC[C@H](Cn3c(=O)c4ccccc4n(CC4CC4)c3=O)CC2)CC1 [Example 73]
4.52 to 6.52	O=C(C1CC1)N1CCN(C(=O)[C@H]2CC[C@H](Cn3c(=O)[nH]c4ccccc43)CC2)CC1 [Example 74]
4.52 to 6.52	COc1ccc2c(c1)c(=O)n(C[C@H]1CC[C@H](C(=O)N3CCN(C(=O)C4CCCC4)CC3)CC1)c(=O)n2C [Example 76]
4.52 to 6.52	Cn1c(=O)n(C[C@H]2CC[C@H](C(=O)N3CCN(C(=O)C4CCCO4)CC3)CC2)c(=O)c2ccccc21 (stereo partly shown) [Example 81]
4.52 to 6.52	O=C(C1CC1)N1CCN(C(=O)[C@H]2CC[C@H](Cn3c(=O)[nH]c4ccc(F)cc4c3=O)CC2)CC1 [Example 82]
4.52 to 6.52	O=C(C1CC1)N1CCN(C(=O)[C@H]2CC[C@H](Cn3c(=O)c4ccccc4n(C(F)F)c3=O)CC2)CC1 [Example 83]
4.52 to 6.52	COc1ccc2c(c1)c(=O)n(C[C@H]1CC[C@H](C(=O)N3CCN(C(=O)C4CC4)CC3)CC1)c(=O)n2CC1CC1 [Example 84]
4.52 to 6.52	O=C(C1CC1)N1CCN(C(=O)[C@H]2CC[C@H](CN3Cc4cc(Cl)ccc4NC3=O)CC2)CC1 [Example 85]
4.52 to 6.52	COc1ccc2[nH]c(=O)n(C[C@H]3CC[C@H](C(=O)N4CCN(C)C(=O)C4)CC3)c(=O)c2c1 [Example 86]
4.52 to 6.52	CCN1CCN(C(=O)[C@H]2CC[C@H](Cn3c(=O)[nH]c4ccc(OC)cc4c3=O)CC2)CC1=O [Example 87]
4.52 to 6.52	COCCN1CCN(C(=O)[C@H]2CC[C@H](Cn3c(=O)[nH]c4ccc(OC)cc4c3=O)CC2)CC1=O [Example 88]
4.52 to 6.52	COc1ccc2[nH]c(=O)n(C[C@H]3CC[C@H](C(=O)N4CCOCC4)CC3)c(=O)c2c1 [Example 89]
4.52 to 6.52	COc1ccc2[nH]c(=O)n(C[C@H]3CC[C@H](C(=O)N4CCCOCC4)CC3)c(=O)c2c1 [Example 90]
4.52 to 6.52	COc1ccc2[nH]c(=O)n(C[C@H]3CC[C@H](C(=O)N4CCN(c5cnccn5)CC4)CC3)c(=O)c2c1 [Example 91]
4.52 to 6.52	CCN1CCN(C(=O)[C@H]2CC[C@H](Cn3c(=O)c4cc(OC)ccc4n(C)c3=O)CC2)CC1=O [Example 93]
4.52 to 6.52	COCCN1CCN(C(=O)[C@H]2CC[C@H](Cn3c(=O)c4cc(OC)ccc4n(C)c3=O)CC2)CC1=O [Example 94]
4.52 to 6.52	Cc1ccc2[nH]c(=O)n(C[C@H]3CC[C@H](C(=O)N4CCN(C(=O)C5CC5)CC4)CC3)c2c1 [Example 95]

pIC50	Structure (SMILES)
4.52 to 6.52	COc1ccc2[nH]c(=O)n(C[C@H]3CC[C@H](C(=O)N4CCN(C(=O)C(C)(C)F)CC4)CC3)c(=O)c2c1 [Example 96]
4.52 to 6.52	COc1ccc2[nH]c(=O)n(C[C@H]3CC[C@H](C(=O)N4CCN(C(=O)C5CC5(F)F)CC4)CC3)c(=O)c2c1 (stereo partly shown) [Example 97]
4.52 to 6.52	COc1ccc2[nH]c(=O)n(C[C@H]3CC[C@H](C(=O)N4CCN(c5ncccn5)CC4)CC3)c(=O)c2c1 [Example 98]
4.52 to 6.52	CCCC(C)C(=O)N1CCN(C(=O)[C@H]2CC[C@H](Cn3c(=O)[nH]c4ccc(OC)cc4c3=O)CC2)CC1 (stereo partly shown) [Example 100]
4.52 to 6.52	CCC(C)C(=O)N1CCN(C(=O)[C@H]2CC[C@H](Cn3c(=O)[nH]c4ccc(OC)cc4c3=O)CC2)CC1 (stereo partly shown) [Example 101]
4.52 to 6.52	COc1ccc2[nH]c(=O)n(C[C@H]3CC[C@H](C(=O)N4CCN(C(=O)c5ccno5)CC4)CC3)c(=O)c2c1 [Example 102]
4.52 to 6.52	COc1ccc2[nH]c(=O)n(C[C@H]3CC[C@H](C(=O)N4CCN(C(=O)OC(C)C)CC4)CC3)c(=O)c2c1 [Example 103]
4.52 to 6.52	CCC(C)OC(=O)N1CCN(C(=O)[C@H]2CC[C@H](Cn3c(=O)[nH]c4ccc(OC)cc4c3=O)CC2)CC1 (stereo partly shown) [Example 104]
4.52 to 6.52	COc1ccc2[nH]c(=O)n(C[C@H]3CC[C@H](C(=O)N4CCN(CC5CC5)C(=O)C4)CC3)c(=O)c2c1 [Example 105]
4.52 to 6.52	COc1ccc2[nH]c(=O)n(C[C@H]3CC[C@H](C(=O)N4CCN(C(=O)C5CCC5)CC4)CC3)c(=O)c2c1 [Example 106]
4.52 to 6.52	CC(C)(F)C(=O)N1CCN(C(=O)[C@H]2CC[C@H](Cn3c(=O)[nH]c4ccccc4c3=O)CC2)CC1 [Example 107]
4.52 to 6.52	O=C(C1CC1(F)F)N1CCN(C(=O)[C@H]2CC[C@H](Cn3c(=O)[nH]c4ccccc4c3=O)CC2)CC1 (stereo partly shown) [Example 108]
4.52 to 6.52	COc1ccc2[nH]c(=O)n(C[C@H]3CC[C@H](C(=O)N4CCN(C(=O)[C@@H]5CCCO5)CC4)CC3)c(=O)c2c1 [Example 110]
4.52 to 6.52	O=C(C1CC1)N1CCN(C(=O)[C@H]2CC[C@H](Cn3c(=O)[nH]c4cc(Cl)ccc43)CC2)CC1 [Example 111]
4.52 to 6.52	O=C(C1CC1)N1CCN(C(=O)[C@H]2CC[C@H](Cn3c(=O)[nH]c4cc(C(F)(F)F)ccc43)CC2)CC1 [Example 112]
4.52 to 6.52	COc1ccc2[nH]c(=O)n(C[C@H]3CC[C@H](C(=O)Nc4ccncc4)CC3)c(=O)c2c1 [Example 113]
4.52 to 6.52	COc1ccc2[nH]c(=O)n(C[C@H]3CC[C@H](C(=O)Nc4ccc5oc(C)nc5c4)CC3)c(=O)c2c1 [Example 114]
4.52 to 6.52	COc1ccc2[nH]c(=O)n(C[C@H]3CC[C@H](C(=O)N4CCN(C(=O)c5cncn5C)CC4)CC3)c(=O)c2c1 [Example 115]
4.52 to 6.52	COc1ccc2[nH]c(=O)n(C[C@H]3CC[C@H](C(=O)N4CCN(C(=O)c5ccncn5)CC4)CC3)c(=O)c2c1 [Example 117]
4.52 to 6.52	COc1ccccc1NC(=O)[C@H]1CC[C@H](CN2CCc3ccccc3NC2=O)CC1 [Example 118]
4.52 to 6.52	COc1ccccc1NC(=O)[C@H]1CC[C@H](CN2C(=O)Cc3ccccc3N(C)C2=O)CC1 [Example 119]

pIC50	Structure (SMILES)
4.52 to 6.52	COc1ccccc1NC(=O)[C@H]1CC[C@H](CN2C(=O)Cc3ccccc3NC2=O)CC1 [Example 120]
4.52 to 6.52	COc1ccc2c(c1)c(=O)n(C[C@H]1CC[C@H](C(=O)N3CCN(c4nccs4)CC3)CC1)c(=O)n2C [Example 121]
4.52 to 6.52	CCC(C)C(=O)N1CCN(C(=O)[C@H]2CC[C@H](Cn3c(=O)c4cc(OC)ccc4n(C)c3=O)CC2)CC1 (stereo partly shown) [Example 123]
4.52 to 6.52	CCCC(C)C(=O)N1CCN(C(=O)[C@H]2CC[C@H](Cn3c(=O)c4cc(OC)ccc4n(C)c3=O)CC2)CC1 (stereo partly shown) [Example 124]
4.52 to 6.52	COc1ccc2c(c1)c(=O)n(C[C@H]1CC[C@H](C(=O)N3CCN(C(=O)OCC(C)C)CC3)CC1)c(=O)n2C [Example 125]
4.52 to 6.52	COc1ccc2[nH]c(=O)n(C[C@H]3CC[C@H](C(=O)N4CCN(C(=O)C5CC5)C[C@H]4C)CC3)c(=O)c2c1 [Example 126]
4.52 to 6.52	COCC(=O)N1CCN(C(=O)[C@H]2CC[C@H](Cn3c(=O)[nH]c4ccc(OC)cc4c3=O)CC2)[C@H](C)C1 [Example 127]
4.52 to 6.52	COc1ccc2c(c1)c(=O)n(C[C@H]1CC[C@H](C(=O)N3CCN(C(=O)[C@@H]4CCCO4)CC3)CC1)c(=O)n2C [Example 128]
4.52 to 6.52	COc1ccc2c(c1)c(=O)n(C[C@H]1CC[C@H](C(=O)N3CCN(C(=O)C4CCC4)CC3)CC1)c(=O)n2C [Example 129]
4.52 to 6.52	COc1ccc2c(c1)c(=O)n(C[C@H]1CC[C@H](C(=O)N3CCN(C(=O)OC(C)C)CC3)CC1)c(=O)n2C [Example 130]
4.52 to 6.52	COc1ccc2c(c1)c(=O)n(C[C@H]1CC[C@H](C(=O)N3CCN(C(=O)[C@H]4CCCO4)CC3)CC1)c(=O)n2C [Example 131]
4.52 to 6.52	COc1ccc2c(c1)c(=O)n(C[C@H]1CC[C@H](C(=O)N3CCN(CC4CC4)C(=O)C3)CC1)c(=O)n2C [Example 132]
4.52 to 6.52	COCC(=O)N1CCN(C(=O)[C@H]2CC[C@H](Cn3c(=O)[nH]c4ccc(OC)cc4c3=O)CC2)[C@@H](C)C1 [Example 133]
4.52 to 6.52	COc1ccc2[nH]c(=O)n(C[C@H]3CC[C@H](C(=O)N4CCN(C(=O)C5CC5)CC4)CC3)c2c1 [Example 134]
4.52 to 6.52	COCCC(=O)N1CCN(C(=O)[C@H]2CC[C@H](Cn3c(=O)c4cc(OC)ccc4n(C)c3=O)CC2)CC1 [Example 137]
4.52 to 6.52	COc1ccc2c(c1)c(=O)n(C[C@H]1CC[C@H](C(=O)N3CCN(C(=O)C4CC4)C[C@H]3C)CC1)c(=O)n2C [Example 138]
4.52 to 6.52	COc1ccc2[nH]c(=O)n(C[C@H]3CC[C@H](C(=O)N4CCN(c5ccncc5)CC4)CC3)c(=O)c2c1 [Example 139]
4.52 to 6.52	COc1ccc2[nH]c(=O)n(C[C@H]3CC[C@H](C(=O)N4CCN(c5cccc(OC)n5)CC4)CC3)c(=O)c2c1 [Example 140]
4.52 to 6.52	COc1ccc2c(c1)c(=O)n(C[C@H]1CC[C@H](C(=O)N3CCN(C(=O)COC(C)C)CC3)CC1)c(=O)n2C [Example 141]

— US8865704B2, “Wnt pathway antagonists” (Siena Biotech S.p.A., priority 2009, dated 2014)
